What was measured:
[1] = Static surface tension, pending drop method on a Krüss DSA100 tensiometer; format: physicochemical; details: water 71.26
Procedure: The lactone obtained in Example 10 was partially hydrolysed in degrees ranging from 0 to 2 equivalents using potassium hydroxide. Partial alkaline hydrolysis in this context implies that less than 3 mol KOH were added per mol lactone. As a consequence only part of the 3 ester bonds, i.e. the lactonic bond and the two acetyl ester bonds, was hydrolysed and a mixture of various sophorolipids formed.
The static surface tension of the partial hydrolysates obtained in the above described experiment was measured according to the pending drop method on a Krüss DSA100 tensiometer.

[2] = Stain removal efficacy in automatic dishwashing on soil plates; details: for average Rw (Y reflection value for washed): 1.4% surfactant in base formula, 50° C. eco; for soil removal: Rw minus Rs
Source text: A sophorolipid lactone sample obtained from the experiment described in Example 8 was centrifuged, spread out on Torck paper and allowed to air dry. The resulting solid was crushed with a coffee mill to a fine powder and dried further with compressed air to >98 wt %. This powder was compared as to its efficiency in automatic dishwashing versus a low foaming alkylpolyglucoside, in particular Simulsol AS48, available from Seppic SA, at equal active matter content. […] 20 gram of the base formula was dosed in a ZDF211 dishwasher. Program D 50° C. eco was run.
In the automatic dishwasher 7 types of soil plates (available from CFT, Vlaardingen, The Netherlands) mounted in a stainless steel holding frame were inserted.

[3] = Storage stability of non-aqueous sophorolactone solution, HPLC-ELSD; format: physicochemical; details: for acid sophorolipid peak (hydrolysis of lactone), share of the total peak area: 10 g sophorolactone in 90 g ethyllactate or isoamyl lactate
Procedure: Both samples were split in 50 ml samples and stored at 4° C. and at 40° C. respectively. After 2 months of storage they were analyzed with HPLC-ELSD. The results are as illustrated by the chromatograms depicted in FIG. 7 and FIG. 8. After 2 months of storage at either 4° C., result depicted in FIG. 7, or 40° C., result depicted in FIG. 8, of this non-aqueous sophorolactone solution only a negligible hydrolysis of lactone material occurred as evidenced by an acid sophorolipid peak appearing at 30.5 min in the grey overlay graph. This peak represents less than 1% of the total peak area.

sophorolactone showed a Surface tension ([1]; Conc. 10 ppm) of 71.00 mN/m, a Surface tension ([1]; Conc. 50 ppm) of 66.21 mN/m and a Surface tension ([1]; Conc. 100 ppm) of 63.02 mN/m. For the same substance, the Surface tension ([1]; Conc. 250 ppm) was 47.67 mN/m, the Surface tension ([1]; Conc. 1000 ppm) was 36.69 mN/m and the Surface tension ([1]; Conc. 2000 ppm) was 36.26 mN/m. For the same substance, the Surface tension ([1]; Conc. 5000 ppm) was 35.85 mN/m, the Surface tension ([1]; Conc. 10000 ppm) was 35.33 mN/m and the Surface tension ([1]; Conc. 25000 ppm) was 35.54 mN/m. The Surface tension ([1]; Conc. 50000 ppm) was 35.14 mN/m, the “soil removal rates, overall comparison” value ([2]; automatic dishwashing, equal active matter content, alkaline pH of about 9.8) was “superior to Simulsol AS48” and the “average Rw (Y reflection value for washed)” value (“average Rw” for short) ([2]; stain Cheese DM06) was 41.9. The soil removal ([2]; stain Cheese DM06) was 16.9, the “average Rw” value ([2]; stain Chocolate DM75) was 24.9 and the soil removal ([2]; stain Chocolate DM75) was 7.1. For the same substance, the “average Rw” value ([2]; stain Coffee DM81) was 77.5, the soil removal ([2]; stain Coffee DM81) was 7.3 and the “average Rw” value ([2]; stain Egg yolk/milk DM31) was 52.0. The soil removal ([2]; stain Egg yolk/milk DM31) was 6.8, the “average Rw” value ([2]; stain Mix starch DM77) was 37.6 and the soil removal ([2]; stain Mix starch DM77) was 1.6. The “average Rw” value ([2]; stain Red wine DM51) was 72.4, the soil removal ([2]; stain Red wine DM51) was 17.1 and the “average Rw” value ([2]; stain Tea DM11) was 75.7. The soil removal ([2]; stain Tea DM11) was 14.6, the “storage stability of non-aqueous solution (chromatogram overlay)” value ([3]; 2 months of storage at 40° C.) was “storage stable” and the “acid sophorolipid peak (hydrolysis of lactone), share of the total peak area” value ([3]; 2 months of storage at 4° C.) was “less than 1%”. For the same substance, the “acid sophorolipid peak (hydrolysis of lactone), share of the total peak area” value ([3]; 2 months of storage at 40° C.) was “less than 1%” and the “storage stability of non-aqueous solution (chromatogram overlay)” value ([3]; storage at 4° C. for 2 months) was “storage stable”.

Source: patent publication US10287615B2, “Sophorolactone production” (ECOVER CO-ORDINATION CENTER N.V., priority 2011, dated 2019)
